One assay concerns HT-29. As to the kind of experiment: Cytotoxicity against human HT-29 cells assessed as growth inhibition after 72 hrs by MTT assay. Type of assay: functional, cell-based. As to conditions: HT-29, 72 h. In general terms: Formazan colour is commonly taken as a measure of viable cells.
The next assay has as its system MCF7. The assay is described as follows: Cytotoxicity against human MCF7 cells assessed as growth inhibition after 72 hrs by MTT assay. It counts as functional, cell-based. Conditions: MCF7, 72 h.
Another assay has as its system HEK293. The assay is described as follows: Cytotoxicity against HEK293 cells assessed as growth inhibition after 72 hrs by MTT assay. Type of assay: cell-based. As to conditions: Homo sapiens, HEK293, 72 h.
Assay [1] is described as follows: Selectivity index, ratio of IC50 for HEK293 cells to IC50 for human HT-29 cells. Type of assay: functional.
A short description of assay [2]: Selectivity index, ratio of IC50 for HEK293 cells to IC50 for human MCF7 cells. It counts as functional.
Assay [3] is filed under the species Ovis aries. The assay is described as follows: Induction of abnormal lamb brain tubulin polymer formation at 10 uM after 10 mins by turbidimetry.
Assay [4] is filed under the species Ovis aries. The assay is described as follows: Inhibition of lamb brain tubulin self assembly assessed as decrease in microtubule formation at 0.1 uM by uranyl acetate staining-based transmission electron microscopy.
Assay [5] can be described thus: Inhibition of lamb brain tubulin self assembly assessed as decrease in microtubule formation after 10 mins by turbidimetry/spectrometry. Also on record: species or system Ovis aries.
Assay [6] is filed under the species Ovis aries. The assay is described as follows: Induction of abnormal lamb brain tubulin polymer formation at 50 uM after 10 mins by turbidimetry.
The species named for assay [7] is Ovis aries. The assay is described as follows: Binding affinity to lamb brain tubulin at 10 uM by fluorimetric titration method.
The species entered for assay [8] is Ovis aries. The assay is described as follows: Binding affinity to lamb brain tubulin-colchicine complex at 20 uM by fluorimetric titration method.
The species entered for assay [9] is Ovis aries. The assay is described as follows: Binding affinity to lamb brain tubulin after 15 mins by fluorimetric titration method.
Assay [10] has as its system A549. As to the kind of experiment: Cytotoxicity against human A549 cells assessed as growth inhibition after 72 hrs by MTT assay. Type of assay: functional, cell-based. Conditions: A549, 72 h.
A short description of assay [11]: Selectivity index, ratio of IC50 for HEK293 cells to IC50 for human A549 cells. Type of assay: functional.
Assay [12] has as its system A549. The assay is described as follows: Induction of microtubule depolymerization in human A549 cells at 100 nM after 4 hrs by immunofluorescence microscopic method. Type of assay: cell-based.
Assay [13] relates to A549. As to the kind of experiment: Cell cycle arrest in human A549 cells assessed as accumulation at G2/M phase at IC50 after 24 hrs by propidium iodide staining-based flow cytometric method. It counts as functional.
Assay [14] is filed under the species Ovis aries. The assay is described as follows: Induction of abnormal lamb brain tubulin polymer formation at 50 uM by uranyl acetate staining-based transmission electron microscopy.
For assay [15], the species on record is Ovis aries. As to the kind of experiment: Inhibition of lamb brain tubulin self assembly assessed as decrease in microtubule formation at 10 uM after 10 mins by turbidimetry/spectrometry.

The source of these data is ChEMBL document CHEMBL3997771 (Eur J Med Chem, 2017).

Active and inactive are the calls of the source. The calls are words filed in the database; no cut-off is given here.

What is called IC50 is the concentration that inhibits the measured activity by half. By inhibition is commonly meant the relative decrease from the control value, in per cent. Regarding `CCCCCCCCCC(=O)N[C@H]1CCc2cc(OC)c(OC)c(OC)c2-c2ccc(OC)c(=O)cc21`, the half-maximal inhibitory concentration (IC50) in the assay with HT-29 amounted to 0.143 nM; in the assay on MCF7 it was 29 nM; with HEK293 it was 0.242 nM; in assay [5], 700 nM; in the assay on A549 [10] it was 25 nM. The figures for the “Ratio IC50” value in [1], in assay [2] and in assay [11] were 1.7, below 0.1 and below 0.1, respectively. Moreover, the result in the assay filed under Ovis aries [3], in the assay listed under Ovis aries [6], in the assay filed under Ovis aries [7] and with A549 [12] was Active. For the same compound, the inhibition result in the assay filed under Ovis aries [4] is “Active”. Also, the result in the assay listed under Ovis aries [8] was inactive. In the assay listed under Ovis aries [9], the Kapp came out at 17.9 ×10⁴ /M.

For `CCCC(=O)N[C@H]1CCc2cc(OC)c(OC)c(OC)c2-c2ccc(OC)c(=O)cc21`, the 50% inhibitory concentration (IC50) with HT-29 is 10 nM; with MCF7, 13 nM; in the assay with HEK293, 13.5 nM. In addition, the “Ratio IC50” value in assay [1] worked out at 1.4; in assay [2] it was 1.

On to `CCCCCCCCCCCCCC(=O)N[C@H]1CCc2cc(OC)c(OC)c(OC)c2-c2ccc(OC)c(=O)cc21`, for which the values for the 50% inhibitory concentration (IC50) in the assay on HT-29, in the assay on MCF7 and with HEK293 were 36 nM, 20 nM and 46 nM, respectively. Also, the “Ratio IC50” value in [1] turned out to be 1.3; in assay [2], 2.3.

Take `CCCCCCCCCCC(=O)N[C@H]1CCc2cc(OC)c(OC)c(OC)c2-c2ccc(OC)c(=O)cc21`: the IC50 in the assay on HT-29 is 0.041 nM; in the assay with MCF7, 1.77 nM; with HEK293 it was 0.17 nM; in [5], 790 nM; with A549 [10], 62 nM. Besides, the “Ratio IC50” value is reported as 4.2 in assay [1], 0.1 in assay [2] and below 0.1 in [11]. For the same compound, the result in the assay listed under Ovis aries [3] and in the assay filed under Ovis aries [6] was Active. Moreover, the Kapp in the assay listed under Ovis aries [9] was determined as 18.4 ×10⁴ /M. In addition, the Activity in the assay on A549 [13] is listed as 41%.

On to `CCCCCCCCCCCC(=O)N[C@H]1CCc2cc(OC)c(OC)c(OC)c2-c2ccc(OC)c(=O)cc21`, for which the IC50 in the assay with HT-29 was found to be 0.27 nM; with MCF7 it was 0.53 nM; in the assay on HEK293, 0.23 nM; in assay [5], 1210 nM; in the assay with A549 [10], 71.9 nM. In addition, the “Ratio IC50” value is reported as 0.9 in [1], 0.4 in [2] and below 0.1 in assay [11]. For the same compound, the outcome in the assay listed under Ovis aries [3], in the assay filed under Ovis aries [6] and in the assay listed under Ovis aries [14] was Active. In the assay filed under Ovis aries [9], this compound showed a Kapp of 19 ×10⁴ /M.

For the compound `CCCCCCCCCCCCCCCC(=O)N[C@H]1CCc2cc(OC)c(OC)c(OC)c2-c2ccc(OC)c(=O)cc21`, the 50% inhibitory concentration (IC50) with HT-29 stood at 184 nM; in the assay on MCF7, 720 nM; in the assay on HEK293 it was 244 nM. Also, the “Ratio IC50” value stood at 1.3 in assay [1] and 0.3 in assay [2].

Consider `CCCCCCCC(=O)N[C@H]1CCc2cc(OC)c(OC)c(OC)c2-c2ccc(OC)c(=O)cc21`, for which the IC50 in the assay on HT-29 came out at 1.69 nM; in the assay with MCF7, 23 nM; in the assay with HEK293, 18.9 nM; in assay [5], 1080 nM; in the assay with A549 [10] it was 133 nM. The “Ratio IC50” value in assay [1] is listed as 11.2; in [2] it was 0.8; in [11], 0.14. Moreover, the inhibition in the assay filed under Ovis aries [15] was found to be 80%. Moreover, the outcome in the assay listed under Ovis aries [6] and in the assay filed under Ovis aries [14] was Active. The compound further displayed a Kapp in the assay listed under Ovis aries [9] of 5.2 ×10⁴ /M.

On to `CCCCCC(=O)N[C@H]1CCc2cc(OC)c(OC)c(OC)c2-c2ccc(OC)c(=O)cc21`, for which the half-maximal inhibitory concentration (IC50) was 3.37 nM in the assay with HT-29; 7.02 nM in the assay on MCF7; 7.1 nM in the assay on HEK293; 2060 nM in assay [5]; 18 nM in the assay on A549 [10]. Besides, the “Ratio IC50” value in assay [1] was 2.1; in assay [2] it was 1; in [11], 0.39. The inhibition entry in the assay filed under Ovis aries [15] is “Active”. The result in the assay filed under Ovis aries [6] and with A549 [12] was Active. In the assay listed under Ovis aries [9], this compound gave a Kapp of 6.4 ×10⁴ /M.

Turning to `CCCCCCCCCCCCC(=O)N[C@H]1CCc2cc(OC)c(OC)c(OC)c2-c2ccc(OC)c(=O)cc21`, the IC50 with HT-29 came to 7 nM; in the assay with MCF7 it was 6.8 nM; in the assay with HEK293, 1.5 nM. Moreover, the “Ratio IC50” value in [1] and in [2] was 0.2 in each case.

Take `CCCCCCCCCCCCCCCCCC(=O)N[C@H]1CCc2cc(OC)c(OC)c(OC)c2-c2ccc(OC)c(=O)cc21`: the figures for the IC50 with HT-29, with MCF7 and in the assay on HEK293 were 1010 nM, 120 nM and 766 nM, respectively. In addition, the entries for the “Ratio IC50” value in [1] and in assay [2] were 0.8 and 6.4, respectively.

In the case of `COc1cc2c(c(OC)c1OC)-c1ccc(OC)c(=O)cc1[C@@H](NC(C)=O)CC2` [COLCHICINE], the IC50 in the assay with A549 [10] was 14 nM. In the assay on A549 [13], the Activity is 8%. The outcome in the assay on A549 [12] was Active.
